Source: patent US4085111A, “1H-tetrazole derivatives” (Yoshitomi Pharmaceutical Industries, Ltd., priority 1974, dated 1978)

Experiments:
[1] = test system: histamine release from the peritoneal cavity; assay: Histamine release from the peritoneal cavity (dextran i.p.); assay type: in vivo, male Wistar rats; settings: Rattus norvegicus, ip; dose required for 50% inhibition; test compound i.p., dextran 180 mg/kg i.p.; rats
Procedure: Histamine release from the peritoneal cavity:
The method used was similar to that described by Hanahoe et al. (T.H.P. Hanahoe, A. Holliman, D. Gordon and W. Wieczorek, J. Pharm. Pharmac. 24, 666 (1972)). Groups of ten male Wistar rats (200-230 g) were injected intraperitoneally with 1 ml normal saline (0.9%) containing different amounts of test compound. A half minutes later they received an intraperitoneal injection of dextran (180 mg/kg, molecular weight about 250,000) or saline as vehicle control. Five minutes later the animals were killed, the peritoneal fluid was collected and centrifuged, and the supernatant was assayed fluorophotometrically for histamine. […] The percent inhibition was calculated using the following formula: [formula] The ED50, the dose required for 50% inhibition, was calculated from the dose-responsive curve.

[2] = test system: SRS-A release from lung tissue; assay: Release of slow reacting substance of anaphylaxis (SRS-A) from sensitized lung tissue; assay type: cell-based, Guinea-pigs; settings: Cavia porcellus, sensitized guinea-pig lung tissue, egg albumen 100 μg/ml; for inhibition at 0.01 µg/mL: 0.01 μg/ml; for inhibition at 0.1 µg/mL: 0.1 μg/ml
Procedure: Release of slow reacting substance of analphylaxis (SRS-A):
Guinea-pigs were sensitized with egg albumen, which was administered as a 10% solution, 100 mg both intraperitoneally and subcutaneously. Three to four weeks later the animals were killed by a blow on the head and the heart and lungs removed from the body and cleaned of blood. The lung tissue was dissected free from the heart, trachea and major bronchioles and then finely chopped. Portions of the lung tissue in 5 ml of Tyrode solution were preincubated with each test solution (50 μl) containing a test compound for 5 minutes at 37° C, to those were added 50 μl of egg albumen (100 μg/ml in a final concentration). The incubation mixture were further incubated for 15 minutes at 37° C. After centrifugation, the supernatant was assayed for SRS-A. The activity of SRS-A was assayed on the isolated guinea-pig ileum in the presence of atropine (5 × 10^-8 g/ml) and pyribenzamine (10^-7 g/ml). The percent inhibition was calculated using the following formula: [formula]

[3] = test system: histamine release from the peritoneal cavity; settings: dextran-induced histamine release, in this experimental method (Hanahoe et al.); cited from earlier work

Structure (SMILES) | ED50 [1] | inhibition at 0.01 µg/mL [2] | inhibition at 0.1 µg/mL [2] | inhibition of the release of histamine [3]
O=c1c2cc(-c3nnn[nH]3)ccc2oc2ncccc12 [Compound A, 7-(5-1H-tetrazolyl)-5-oxo-5H-[1]benzopyrano[2,3-b]pyridine] | 1 µg/kg | 25.2% | 35.3% | 
O=c1c2cccnc2oc2c(Cl)cc(-c3nnn[nH]3)cc12 [Compound B, 9-chloro-7-(5-1H-tetrazolyl)-5-oxo-5-H-[1]benzopyrano[2,3-b]-pyridine] | 0.25 µg/kg | 19% | 22.6% | 
O=C(O)c1cc(=O)c2c(OCC(O)COc3cccc4oc(C(=O)O)cc(=O)c34)cccc2o1 [disodium cromoglycate] |  |  |  | inhibits markedly
